In patent US10696615B2, “Prenylated hydroxystilbenes” (The University of Sydney, priority 2011, dated 2020):

How the values were obtained:
Format in all cases: cell-based, human
[1] = tested on: UACC-62; assay: NCI in vitro cancer screen, Melanoma; settings: UACC-62; for GI50 / CC50: Homo sapiens; for CC50: read-out: LC50 (the source's name)
[2] = tested on: SK-OV-3; assay: NCI in vitro cancer screen, Ovarian Cancer; settings: SK-OV-3; for GI50 / CC50: Homo sapiens; for CC50: read-out: LC50 (the source's name)
[3] = tested on: MOLT-4; assay: NCI in vitro cancer screen, Leukemia; settings: MOLT-4; for GI50 / CC50: Homo sapiens; for CC50: read-out: LC50 (the source's name)
[4] = tested on: DU-145; assay: NCI in vitro cancer screen, Prostate Cancer; settings: DU-145; for GI50 / CC50: Homo sapiens; for CC50: read-out: LC50 (the source's name)
[5] = tested on: UACC-257; assay: NCI in vitro cancer screen, Melanoma; settings: UACC-257; for GI50 / CC50: Homo sapiens; for CC50: read-out: LC50 (the source's name)
[6] = tested on: SK-MEL-5; assay: NCI in vitro cancer screen, Melanoma; settings: SK-MEL-5; for GI50 / CC50: Homo sapiens; for CC50: read-out: LC50 (the source's name)
[7] = tested on: M14; assay: NCI in vitro cancer screen, Melanoma; settings: M14; for GI50 / CC50: Homo sapiens; for CC50: read-out: LC50 (the source's name)
[8] = tested on: RXF-393; assay: NCI in vitro cancer screen, Renal Cancer; settings: RXF-393; for GI50 / CC50: Homo sapiens; for CC50: read-out: LC50 (the source's name)
[9] = tested on: MDA-MB-468; assay: NCI in vitro cancer screen, Breast Cancer; settings: MDA-MB-468; for GI50 / CC50: Homo sapiens; for CC50: read-out: LC50 (the source's name)
[10] = tested on: T-47D; assay: NCI in vitro cancer screen, Breast Cancer; settings: for GI50 / CC50: Homo sapiens, T47D; for CC50: read-out: LC50 (the source's name)
[11] = tested on: SK-MEL-28; assay: NCI in vitro cancer screen, Melanoma; settings: SK-MEL-28; for GI50 / LC50: Homo sapiens
[12] = tested on: OVCAR-4; assay: NCI in vitro cancer screen, Ovarian Cancer; settings: OVCAR-4; for GI50 / CC50: Homo sapiens; for CC50: read-out: LC50 (the source's name)
[13] = tested on: UO-31; assay: NCI in vitro cancer screen, Renal Cancer; settings: UO-31; for GI50 / CC50: Homo sapiens; for CC50: read-out: LC50 (the source's name)
[14] = tested on: NCI-H23; assay: NCI in vitro cancer screen, Non-Small Cell Lung Cancer; settings: NCI-H23; for GI50 / LC50: Homo sapiens
[15] = tested on: SF-295; assay: NCI in vitro cancer screen, CNS Cancer; settings: SF-295; for GI50 / CC50: Homo sapiens; for CC50: read-out: LC50 (the source's name)
[16] = tested on: OVCAR-8; assay: NCI in vitro cancer screen, Ovarian Cancer; settings: OVCAR-8; for GI50 / CC50: Homo sapiens; for CC50: read-out: LC50 (the source's name)
[17] = tested on: 786-0; assay: NCI in vitro cancer screen, Renal Cancer; settings: 786-0; for GI50 / LC50 (50% net cell kill): Homo sapiens
[18] = tested on: SR; assay: NCI in vitro cancer screen, Leukemia
[19] = tested on: HL-60 (TB); assay: NCI in vitro cancer screen, Leukemia; settings: HL-60 (TB); for GI50 / CC50: Homo sapiens; for CC50: read-out: LC50 (the source's name)
[20] = tested on: K-562; assay: NCI in vitro cancer screen, Leukemia; settings: K-562; for GI50 / CC50: Homo sapiens, K562; for CC50: read-out: LC50 (the source's name)
[21] = tested on: RPMI-8226; assay: NCI in vitro cancer screen, Leukemia; settings: RPMI-8226; for GI50 / CC50: Homo sapiens; for CC50: read-out: LC50 (the source's name)
[22] = tested on: HT29; assay: NCI in vitro cancer screen, Colon Cancer; settings: HT29; for GI50 / CC50: Homo sapiens, HT-29; for CC50: read-out: LC50 (the source's name)
[23] = tested on: ADR-RES (NCI/ADR-RES); assay: NCI in vitro cancer screen, Ovarian Cancer; settings: for TGI: ADR-RES; for GI50 / CC50: Homo sapiens, NCI/ADR-RES; for CC50: read-out: LC50 (the source's name)
[24] = tested on: OVCAR-5; assay: NCI in vitro cancer screen, Ovarian Cancer; settings: OVCAR-5; for GI50 / CC50: Homo sapiens; for CC50: read-out: LC50 (the source's name)
[25] = tested on: HOP-62; assay: NCI in vitro cancer screen, Non-Small Cell Lung Cancer; settings: HOP-62; for GI50 / CC50: Homo sapiens; for CC50: read-out: LC50 (the source's name)
[26] = tested on: LOX IMVI; assay: NCI in vitro cancer screen, Melanoma; settings: for GI50 / CC50: Homo sapiens; for CC50: read-out: LC50 (the source's name)
[27] = tested on: SNB-19; assay: NCI in vitro cancer screen, CNS Cancer; settings: SNB-19; for GI50 / CC50: Homo sapiens; for CC50: read-out: LC50 (the source's name)
[28] = tested on: HCT-116; assay: NCI in vitro cancer screen, Colon Cancer; settings: HCT-116; for GI50 / LC50 (concentration killing 50% of cells): Homo sapiens
[29] = tested on: HOP-92; assay: NCI in vitro cancer screen, Non-Small Cell Lung Cancer; settings: HOP-92; for GI50 / CC50: Homo sapiens; for CC50: read-out: LC50 (the source's name)
[30] = tested on: NCI-H460; assay: as above; settings: NCI-H460; for GI50 / CC50: Homo sapiens; for CC50: read-out: LC50 (the source's name)
[31] = tested on: COLO 205; assay: NCI in vitro cancer screen, Colon Cancer; settings: COLO 205; for GI50 / CC50: Homo sapiens; for CC50: read-out: LC50 (the source's name)

SMILES: COc1cc(/C=C/c2cc(O)cc(OCC=C(C)C)c2)ccc1O [USYDS2, (E)-3-(3-methyl-2-butenyloxy)-4′,5-dihydroxy-3′-methoxystilbene]
- GI50 [1]: 3.73 µM
- CC50 [1]: 44.6 µM
- TGI [1]: 15.9 µM
- GI50 [2]: 3.69 µM
- CC50 [2]: 38.9 µM
- TGI [2]: 14.9 µM
- GI50 [3]: 4.16 µM
- CC50 [3]: > 100 µM
- TGI [3]: 28.3 µM
- TGI [4]: 12.5 µM
- GI50 [4]: 3.05 µM
- CC50 [4]: 37.8 µM
- GI50 [5]: 7.89 µM
- CC50 [5]: 46 µM
- TGI [5]: 20.6 µM
- GI50 [6]: 1.58 µM
- CC50 [6]: 34.3 µM
- TGI [6]: 11.5 µM
- GI50 [7]: 0.53 µM
- CC50 [7]: 49.4 µM
- TGI [7]: 15.4 µM
- GI50 [8]: 1.35 µM
- CC50 [8]: 23.6 µM
- TGI [8]: 5.46 µM
- GI50 [9]: 2.72 µM
- CC50 [9]: 36.8 µM
- TGI [9]: 9.41 µM
- TGI [10]: 33.6 µM
- GI50 [10]: 5.66 µM
- CC50 [10]: > 100 µM
- GI50 [11]: 5.04 µM
- LC50 [11]: 46.7 µM
- TGI [11]: 19.4 µM
- GI50 [12]: 5.34 µM
- CC50 [12]: > 100 µM
- TGI [12]: 28.0 µM
- GI50 [13]: 2.6 µM
- CC50 [13]: 48.9 µM
- TGI [13]: 16.9 µM
- GI50 [14]: 2.89 µM
- LC50 [14]: > 100 µM
- TGI [14]: 23.6 µM
- GI50 [15]: 3.94 µM
- CC50 [15]: 49.2 µM
- TGI [15]: 14.7 µM
- GI50 [16]: 2.8 µM
- CC50 [16]: 44.6 µM
- TGI [16]: 14.8 µM
- TGI [17]: 15.9 µM
- GI50 [17]: 3.55 µM
- LC50 (50% net cell kill) [17]: 98.8 µM
- TGI [18]: >100 µM
- GI50 ([18]; Homo sapiens): 0.54 µM
- CC50 ([18]; Homo sapiens, read-out: LC50 (the source's name)): > 100 µM
- TGI [19]: 9.77 µM
- GI50 [19]: 1.34 µM
- CC50 [19]: > 100 µM
- GI50 [20]: 0.48 µM
- CC50 [20]: > 100 µM
- TGI [20]: >100 µM
- GI50 [21]: 4.32 µM
- CC50 [21]: > 100 µM
- TGI [21]: 52.8 µM
- TGI [22]: 32.2 µM
- GI50 [22]: 17.4 µM
- CC50 [22]: 59.6 µM
- TGI [23]: 4.95 µM
- GI50 [23]: 0.4 µM
- CC50 [23]: > 100 µM
- GI50 [24]: 10.1 µM
- CC50 [24]: 60.9 µM
- TGI [24]: 24.8 µM
- TGI [25]: 18.5 µM
- GI50 [25]: 4.44 µM
- CC50 [25]: 43.4 µM
- TGI [26]: 19.4 µM
- GI50 [26]: 1.56 µM
- CC50 [26]: > 100 µM
- GI50 [27]: 5.02 µM
- CC50 [27]: 53.6 µM
- TGI [27]: 20.4 µM
- TGI [28]: 11.9 µM
- GI50 [28]: 2.09 µM
- LC50 (concentration killing 50% of cells) [28]: 40 µM
- TGI [29]: 21.1 µM
- GI50 [29]: 3.98 µM
- CC50 [29]: 60.1 µM
- GI50 [30]: 2.47 µM
- CC50 [30]: 58.7 µM
- TGI [30]: 10.9 µM
- TGI [31]: 31.7 µM
- GI50 [31]: 17.3 µM
- CC50 [31]: 57.9 µM

SMILES: COc1cc(O)cc(/C=C/c2ccc(O)c(O)c2)c1CC=C(C)C [USYDS9, (E)-2-(3-methyl-2-buten-1-yl)-3′,4′,5-trihydroxy-3-methoxystilbene]
- GI50 [1]: 3.22 µM
- CC50 [1]: > 100 µM
- TGI [1]: 34.8 µM
- GI50 [2]: 0.5 µM
- CC50 [2]: > 100 µM
- TGI [2]: 5.12 µM
- GI50 [3]: 1.27 µM
- CC50 [3]: > 100 µM
- TGI [3]: 6.77 µM
- TGI [4]: 2.62 µM
- GI50 [4]: 0.35 µM
- CC50 [4]: > 100 µM
- GI50 [5]: 6.15 µM
- CC50 [5]: > 100 µM
- TGI [5]: 59.2 µM
- GI50 [6]: 0.39 µM
- CC50 [6]: > 100 µM
- TGI [6]: 2.52 µM
- GI50 [7]: 0.3 µM
- CC50 [7]: > 100 µM
- TGI [7]: 5.69 µM
- GI50 [8]: 0.23 µM
- CC50 [8]: > 100 µM
- TGI [8]: 0.63 µM
- GI50 [9]: 2.42 µM
- CC50 [9]: > 100 µM
- TGI [9]: 8.48 µM
- TGI [10]: 36.9 µM
- GI50 [10]: 4.78 µM
- CC50 [10]: > 100 µM
- GI50 [11]: 8.14 µM
- LC50 [11]: > 100 µM
- TGI [11]: >100 µM
- GI50 [12]: 5.48 µM
- CC50 [12]: > 100 µM
- TGI [12]: >100 µM
- GI50 [13]: 0.46 µM
- CC50 [13]: > 100 µM
- TGI [13]: >100 µM
- GI50 [14]: 1.43 µM
- LC50 [14]: > 100 µM
- TGI [14]: >100 µM
- GI50 [15]: 2.6 µM
- CC50 [15]: > 100 µM
- TGI [15]: 20.5 µM
- GI50 [16]: 0.5 µM
- CC50 [16]: > 100 µM
- TGI [16]: 38.3 µM
- TGI [17]: 18.7 µM
- GI50 [17]: 2.99 µM
- LC50 (50% net cell kill) [17]: > 100 µM
- TGI [19]: 0.43 µM
- GI50 [19]: 0.2 µM
- CC50 [19]: 0.95 µM
- GI50 [20]: 0.33 µM
- CC50 [20]: > 100 µM
- TGI [20]: 13.9 µM
- GI50 [21]: 0.45 µM
- CC50 [21]: > 100 µM
- TGI [21]: >100 µM
- TGI [22]: 46.6 µM
- GI50 [22]: 18.6 µM
- CC50 [22]: > 100 µM
- TGI [23]: 3.69 µM
- GI50 [23]: 0.29 µM
- CC50 [23]: > 100 µM
- GI50 [24]: 30.7 µM
- CC50 [24]: > 100 µM
- TGI [24]: >100 µM
- TGI [25]: >100 µM
- GI50 [25]: 2.87 µM
- CC50 [25]: > 100 µM
- TGI [26]: 58.6 µM
- GI50 [26]: 0.64 µM
- CC50 [26]: > 100 µM
- GI50 [27]: 0.55 µM
- CC50 [27]: > 100 µM
- TGI [27]: >100 µM
- TGI [28]: 12.8 µM
- GI50 [28]: 1.4 µM
- LC50 (concentration killing 50% of cells) [28]: 75 µM
- TGI [29]: >100 µM
- GI50 [29]: 0.62 µM
- CC50 [29]: > 100 µM
- GI50 [30]: 0.47 µM
- CC50 [30]: 75.7 µM
- TGI [30]: 10.3 µM
- TGI [31]: 83.6 µM
- GI50 [31]: 21.7 µM
- CC50 [31]: > 100 µM
